Results taken from publication PMC8510344, “Bile-Acid-Appended Triazolyl Aryl Ketones: Design, Synthesis, In Vitro Anticancer Activity and Pharmacokinetics in Rats” (Molecules, 2021).

Key:
[1] = test system: MCF-7 (human breast adenocarcinoma) cells; test: MTT cytotoxicity assay, MCF-7; type: cell-based; details: for viability at 10 µM: MCF7, 10 µM, 48 h exposure, read-out: % Cell Viability at 10 µM MCF-7; for IC50: 48 h
Method: (§1) The cytotoxicity activity of all the conjugates (6aa–6df) was evaluated in vitro by MTT assay against two different breast cancer cell lines 4T1 (murine) and MCF-7 (human) and HEK 293 (human) as normal cell line. DTX was used as positive control. Cells were grown in DMEM supplemented with 10% FBS and 1% antibiotic solution and incubated at 5% CO2 and 37 °C for 24 h. The stock solutions of all the conjugates were prepared in DMSO and diluted for further use. Briefly, 5 × 10^3 cells/well were seeded in 96-well cell culture plates and allowed to adhere for 24 h. Cell inhibition (%) was determined after 48 h exposure to the compounds at 1–25 μM concentration. After 48 h, MTT assay was performed and the yellow tetrazolium salt (MTT) was reduced in metabolically active cells to form insoluble purple formazan crystals, which were solubilized by the addition of DMSO. The optical density (OD) was recorded at 560 nm and 630 nm as reference wavelength. Percentage cell inhibition was determined by comparison with untreated cells.

[2] = test system: 4T1 (mouse mammary carcinoma) cells; test: MTT cytotoxicity assay, 4T1; type: cell-based; details: for viability at 10 µM: 48 h exposure, read-out: % Cell Viability at 10 µM 4T1; for IC50: 48 h
Method: as §1

[3] = MTT cytotoxicity assay, normal cell line HEK 293; type: cell-based; details: human, HEK 293 cells, HEK 293 normal cells, 48 h exposure
Method: as §1

Row | SMILES | viability at 10 µM ([1]; Homo sapiens) [%] | viability at 10 µM ([2]; Mus musculus) [%] | viability at 48 h, 10 µM [3] [%] | melting point [°C] | IC50 [1] [µM] | IC50 ([1]; Homo sapiens, MCF7, 48 h) [µM] | IC50 [2] [µM] | IC50 ([2]; Mus musculus) [µM]
1 | C[C@H](CCC(=O)OCc1cn(CC(=O)c2ccccc2)nn1)C1CCC2C3C(C[C@H](O)[C@@]21C)[C@@]1(C)CC[C@@H](O)CC1C[C@H]3O (stereo partly drawn) [6aa, (1-(2-Oxo-2-phenylethyl)-1H-1,2,3-triazol-4-yl)methyl (4R)-4-((3R,7R,10S,12S,13R)-3,7,12-trihydroxy-10,13-dimethylhexadecahydro-1H-cyclopenta[a]phenanthren-17-yl)pentanoate] | 77.3 | 74.3 | 86.1 | 108 to 109 | – | – | – | –
2 | Cc1ccc(C(=O)Cn2cc(COC(=O)CC[C@@H](C)C3CCC4C5C(C[C@H](O)[C@@]43C)[C@@]3(C)CC[C@@H](O)CC3C[C@H]5O)nn2)cc1 (stereo partly drawn) [6ab, (1-(2-Oxo-2-(p-tolyl)ethyl)-1H-1,2,3-triazol-4-yl)methyl (4R)-4-((3R,7R,10S,12S,13R)-3,7,12-trihydroxy-10,13-dimethylhexadecahydro-1H-cyclopenta[a]phenanthren-17-yl)pentanoate] | 57.4 | 72.9 | 87.6 | – | – | – | – | –
3 | COc1ccc(C(=O)Cn2cc(COC(=O)CC[C@@H](C)C3CCC4C5C(C[C@H](O)[C@@]43C)[C@@]3(C)CC[C@@H](O)CC3C[C@H]5O)nn2)cc1 (stereo partly drawn) [6ac, (1-(2-(4-Methoxyphenyl)-2-oxoethyl)-1H-1,2,3-triazol-4-yl)methyl (4R)-4-((3R,7R,10S,12S,13R)-3,7,12-trihydroxy-10,13-dimethylhexadecahydro-1H-cyclopenta[a]phenanthren-17-yl)pentanoate] | 55.6 | 80 | 87.9 | 176 to 177 | – | – | – | –
4 | C[C@H](CCC(=O)OCc1cn(CC(=O)c2ccc(F)cc2)nn1)C1CCC2C3C(C[C@H](O)[C@@]21C)[C@@]1(C)CC[C@@H](O)CC1C[C@H]3O (stereo partly drawn) [6ad, (1-(2-(4-Fluorophenyl)-2-oxoethyl)-1H-1,2,3-triazol-4-yl)methyl (4R)-4-((3R,7R,10S,12S,13R)-3,7,12-trihydroxy-10,13-dimethylhexadecahydro-1H-cyclopenta[a]phenanthren-17-yl)pentanoate] | 66.5 | 47.7 | 86.8 | 152 to 153 | – | – | – | –
5 | C[C@H](CCC(=O)OCc1cn(CC(=O)c2ccc(Cl)cc2)nn1)C1CCC2C3C(C[C@H](O)[C@@]21C)[C@@]1(C)CC[C@@H](O)CC1C[C@H]3O (stereo partly drawn) [6ae, (1-(2-(4-Chlorophenyl)-2-oxoethyl)-1H-1,2,3-triazol-4-yl)methyl (4R)-4-((3R,7R,10S,12S,13R)-3,7,12-trihydroxy-10,13-dimethylhexadecahydro-1H-cyclopenta[a]phenanthren-17-yl)pentanoate] | 79.6 | 58.9 | 96.2 | 153 to 154 | – | – | – | –
6 | C[C@H](CCC(=O)OCc1cn(CC(=O)c2ccccc2)nn1)C1CCC2C3CCC4C[C@H](O)CC[C@]4(C)C3C[C@H](O)[C@@]21C (stereo partly drawn) [6ba, (1-(2-Oxo-2-phenylethyl)-1H-1,2,3-triazol-4-yl)methyl (4R)-4-((3R,10S,12S,13R)-3,12-dihydroxy-10,13-dimethylhexadecahydro-1H-cyclopenta[a]phenanthren-17-yl)pentanoate] | 91.9 | 97.8 | 88.9 | 143 to 144 | – | – | – | –
7 | Cc1ccc(C(=O)Cn2cc(COC(=O)CC[C@@H](C)C3CCC4C5CCC6C[C@H](O)CC[C@]6(C)C5C[C@H](O)[C@@]43C)nn2)cc1 (stereo partly drawn) [6bb, (1-(2-Oxo-2-(p-tolyl)ethyl)-1H-1,2,3-triazol-4-yl)methyl (4R)-4-((3R,10S,12S,13R)-3,12-dihydroxy-10,13-dimethylhexadecahydro-1H-cyclopenta[a]phenanthren-17-yl)pentanoate] | 67.6 | 85.7 | 89.2 | 123 to 125 | – | – | – | –
8 | COc1ccc(C(=O)Cn2cc(COC(=O)CC[C@@H](C)C3CCC4C5CCC6C[C@H](O)CC[C@]6(C)C5C[C@H](O)[C@@]43C)nn2)cc1 (stereo partly drawn) [6bc, (1-(2-(4-Methoxyphenyl)-2-oxoethyl)-1H-1,2,3-triazol-4-yl)methyl (4R)-4-((3R,10S,12S,13R)-3,12-dihydroxy-10,13-dimethylhexadecahydro-1H-cyclopenta[a]phenanthren-17-yl)pentanoate] | 69.6 | 68.4 | 90.8 | 144 to 145 | – | – | – | –
9 | C[C@H](CCC(=O)OCc1cn(CC(=O)c2ccc(F)cc2)nn1)C1CCC2C3CCC4C[C@H](O)CC[C@]4(C)C3C[C@H](O)[C@@]21C (stereo partly drawn) [6bd, (1-(2-(4-Fluorophenyl)-2-oxoethyl)-1H-1,2,3-triazol-4-yl)methyl (4R)-4-((3R,10S,12S,13R)-3,12-dihydroxy-10,13-dimethylhexadecahydro-1H-cyclopenta[a]phenanthren-17-yl)pentanoate] | 79.6 | 52.4 | 89.4 | 127 to 128 | – | – | – | –
10 | C[C@H](CCC(=O)OCc1cn(CC(=O)c2ccc(Cl)cc2)nn1)C1CCC2C3CCC4C[C@H](O)CC[C@]4(C)C3C[C@H](O)[C@@]21C (stereo partly drawn) [6be, (1-(2-(4-Chlorophenyl)-2-oxoethyl)-1H-1,2,3-triazol-4-yl)methyl (4R)-4-((3R,10S,12S,13R)-3,12-dihydroxy-10,13-dimethylhexadecahydro-1H-cyclopenta[a]phenanthren-17-yl)pentanoate] | 68.5 | 76 | 88.4 | 92 to 93 | – | – | – | –
11 | C[C@H](CCC(=O)OCc1cn(CC(=O)c2ccc(Br)cc2)nn1)C1CCC2C3CCC4C[C@H](O)CC[C@]4(C)C3C[C@H](O)[C@@]21C (stereo partly drawn) [6bf, (1-(2-(4-Bromophenyl)-2-oxoethyl)-1H-1,2,3-triazol-4-yl)methyl (4R)-4-((3R,10S,12S,13R)-3,12-dihydroxy-10,13-dimethylhexadecahydro-1H-cyclopenta[a]phenanthren-17-yl)pentanoate] | 44.4 | 60.9 | 86.8 | 176 to 177 | 18.3 ± 1.48 | < 19 | 9.68 ± 1.59 | < 19
12 | C[C@H](CCC(=O)NCc1cn(CC(=O)c2ccccc2)nn1)C1CCC2C3C(C[C@H](O)[C@@]21C)[C@@]1(C)CC[C@@H](O)CC1C[C@H]3O (stereo partly drawn) [6ca, (4R)-N-((1-(2-Oxo-2-phenylethyl)-1H-1,2,3-triazol-4-yl)methyl)-4-((3R,7R,10S,12S,13R)-3,7,12-trihydroxy-10,13-dimethylhexadecahydro-1H-cyclopenta[a]phenanthren-17-yl)pentanamide] | 92.1 | 85.2 | 90.1 | 148 to 149 | – | – | – | –
13 | Cc1ccc(C(=O)Cn2cc(CNC(=O)CC[C@@H](C)C3CCC4C5C(C[C@H](O)[C@@]43C)[C@@]3(C)CC[C@@H](O)CC3C[C@H]5O)nn2)cc1 (stereo partly drawn) [6cb, (4R)-N-((1-(2-Oxo-2-(p-tolyl)ethyl)-1H-1,2,3-triazol-4-yl)methyl)-4-((3R,7R,10S,12S,13R)-3,7,12-trihydroxy-10,13-dimethylhexadecahydro-1H-cyclopenta[a]phenanthren-17-yl)pentanamide] | 61.9 | 96.7 | 86 | 129 to 131 | – | – | – | –
14 | COc1ccc(C(=O)Cn2cc(CNC(=O)CC[C@@H](C)C3CCC4C5C(C[C@H](O)[C@@]43C)[C@@]3(C)CC[C@@H](O)CC3C[C@H]5O)nn2)cc1 (stereo partly drawn) [6cc, (4R)-N-((1-(2-(4-Methoxyphenyl)-2-oxoethyl)-1H-1,2,3-triazol-4-yl)methyl)-4-((3R,7R,10S,12S,13R)-3,7,12-trihydroxy-10,13-dimethylhexadecahydro-1H-cyclopenta[a]phenanthren-17-yl)pentanamide] | 95.4 | 56.8 | 96.8 | – | – | – | – | –
15 | C[C@H](CCC(=O)NCc1cn(CC(=O)c2ccc(F)cc2)nn1)C1CCC2C3C(C[C@H](O)[C@@]21C)[C@@]1(C)CC[C@@H](O)CC1C[C@H]3O (stereo partly drawn) [6cd, (4R)-N-((1-(2-(4-Fluorophenyl)-2-oxoethyl)-1H-1,2,3-triazol-4-yl)methyl)-4-((3R,7R,10S,12S,13R)-3,7,12-trihydroxy-10,13-dimethylhexadecahydro-1H-cyclopenta[a]phenanthren-17-yl)pentanamide] | 88.7 | 70.7 | 97.5 | 137 to 138 | – | – | – | –
16 | CC(=O)O[C@@]12CO[C@@H]1C[C@H](O)[C@@]1(C)C(=O)[C@H](O)C3=C(C)[C@@H](OC(=O)[C@H](O)[C@@H](NC(=O)OC(C)(C)C)c4ccccc4)C[C@@](O)([C@@H](OC(=O)c4ccccc4)[C@H]21)C3(C)C [DTX, Docetaxel, reference compound] | 46.5 | 56.9 | – | – | – | 9.46 ± 0.98 | – | 13.8 ± 1.07
